Values quoted from earlier work in PubChem BioAssay AID1259409 (Chemical Carcinogenesis Research Information System (CCRIS), 2018).

Tested on: rodent chemically induced tumor inhibition, incidence and multiplicity
Assay: CCRIS tumor inhibitor studies

Cc1cc(C(C)(C)C)c(O)c(C(C)(C)C)c1
tumour outcome (control, treated, inhibition, significance) (Carcinogen: 1,2-DIMETHYLHYDRAZINE DIHYDROCHLORIDE, 306-37-6, Dose [Inhibitor]: 6600 PPM IN DIET FOR 23 WK (STUDY DURATION: 23 WK), Route [Inhibitor]: ORAL, Species: RAT, Strain/Sex: SPRAGUE-DAWLEY MALE, Target Tissue: Type of Lesion: CECUM: TUMOR, Dose [Carcinogen]: 30 MG/KG IN SALINE 1/WK FOR THE FIRST 9 WK OF STUDY (10 DOSES), SIMULTANEOUSLY WITH INHIBITOR, Promoter: NONE USED): 1/10 (10%), 4/9 (44%), -340%, not calculated
tumour outcome (control, treated, inhibition, significance) (Carcinogen: 1,2-DIMETHYLHYDRAZINE DIHYDROCHLORIDE, 306-37-6, Dose [Inhibitor]: 6600 PPM IN DIET FOR 23 WK (STUDY DURATION: 23 WK), Route [Inhibitor]: ORAL, Species: RAT, Strain/Sex: SPRAGUE-DAWLEY MALE, Target Tissue: Type of Lesion: COLON: TUMOR, Dose [Carcinogen]: 30 MG/KG IN SALINE 1/WK FOR THE FIRST 9 WK OF STUDY (10 DOSES), SIMULTANEOUSLY WITH INHIBITOR, Promoter: NONE USED): 10/10 (100%), 9/9 (100%), 0%, not calculated
tumour outcome (control, treated, inhibition, significance) (Carcinogen: 1,2-DIMETHYLHYDRAZINE DIHYDROCHLORIDE, 306-37-6, Dose [Inhibitor]: 6600 PPM IN DIET FOR 23 WK (STUDY DURATION: 23 WK), Route [Inhibitor]: ORAL, Species: RAT, Strain/Sex: SPRAGUE-DAWLEY MALE, Target Tissue: Type of Lesion: DUODENUM: TUMOR, Dose [Carcinogen]: 30 MG/KG IN SALINE 1/WK FOR THE FIRST 9 WK OF STUDY (10 DOSES), SIMULTANEOUSLY WITH INHIBITOR, Promoter: NONE USED): 8/10 (80%), 5/9 (56%), 30%, not calculated
tumour outcome (control, treated, inhibition, significance) (Carcinogen: 1,2-DIMETHYLHYDRAZINE, 540-73-8, Dose [Inhibitor]: 0, 0.5% IN DIET BEGINNING 1 WK POST LAST CARCINOGEN DOSE AND CONTINUING FOR 36 WK (STUDY DURATION: 40 WK), Route [Inhibitor]: ORAL, Species: RAT, Strain/Sex: F344/MALE, Target Tissue: Type of Lesion: COLON: ADENOMA, Dose [Carcinogen]: 20 MG/KG 1/WK FOR 4 WK, Promoter: NONE USED): 5/18 (28%), 4/19 (21%), 25%, not calculated
tumour outcome (control, treated, inhibition, significance) (Carcinogen: 1,2-DIMETHYLHYDRAZINE, 540-73-8, Dose [Inhibitor]: 0, 0.5% IN DIET BEGINNING 1 WK POST LAST CARCINOGEN DOSE AND CONTINUING FOR 36 WK (STUDY DURATION: 40 WK), Route [Inhibitor]: ORAL, Species: RAT, Strain/Sex: F344/MALE, Target Tissue: Type of Lesion: COLON: CARCINOMA, Dose [Carcinogen]: 20 MG/KG 1/WK FOR 4 WK, Promoter: NONE USED): 7/18 (39%), 9/19 (48%), -23%, not calculated
tumour outcome (control, treated, inhibition, significance) (Carcinogen: 1,2-DIMETHYLHYDRAZINE, 540-73-8, Dose [Inhibitor]: 0, 250 MG/KG BW IN CORN OIL 1/D FOR 2 WK PRIOR TO FIRST CARCINOGEN DOSE THEN 3/WK FOR DURATION OF STUDY (STUDY DURATION:, Route [Inhibitor]: GAVAGE, Species: RAT, Strain/Sex: BD6/MALE, Target Tissue: Type of Lesion: INTESTINE: TUMOR, Dose [Carcinogen]: 20 MG/KG BW 1/WK FOR 20 WK, Promoter: NONE USED): 100%, 100%, 0%, not significant
tumour outcome (control, treated, inhibition, significance) (Carcinogen: 1,2-DIMETHYLHYDRAZINE, 540-73-8, Dose [Inhibitor]: 0.5% IN DIET STARTING 2 WK PRIOR TO CARCINOGEN TREATMENT AND CONTINUING FOR DURATION OF STUDY (STUDY DURATION: 28 WK), Route [Inhibitor]: ORAL, Species: RAT, Strain/Sex: SPRAGUE-DAWLEY/MALE, Target Tissue: Type of Lesion: COLON: ADENOCARCINOMA, Dose [Carcinogen]: 20 MG/KG BW IN BACTERIOSTATIC SALINE 1/WK FOR 20 WK, Promoter: NONE USED): 9/14 (64%), 3/7 (43%), 33%, not calculated
tumour outcome (control, treated, inhibition, significance) (Carcinogen: 1,2-DIMETHYLHYDRAZINE, 540-73-8, Dose [Inhibitor]: 0.75% IN DIET FOR LIFE BEGINNING AT 8 WK OF AGE (STUDY DURATION: 10 MO POST FIRST CARCINOGEN TREATMENT), Route [Inhibitor]: ORAL, Species: MOUSE, Strain/Sex: BALB/FEMALE, Target Tissue: Type of Lesion: LARGE INTESTINE: TUMOR, Dose [Carcinogen]: 20 MG/KG BW IN SALINE FOR 10 WK BEGINNING AT 11 WK OF AGE, Promoter: NONE USED): 9/18 (50%), 15/25 (60%), -20%, not significant
tumour outcome (control, treated, inhibition, significance) (Carcinogen: 1,2-DIMETHYLHYDRAZINE, 540-73-8, Dose [Inhibitor]: 0.75% IN DIET FOR LIFE BEGINNING AT 8 WK OF AGE (STUDY DURATION: 10 MO POST FIRST CARCINOGEN TREATMENT), Route [Inhibitor]: ORAL, Species: MOUSE, Strain/Sex: BALB/MALE, Target Tissue: Type of Lesion: LARGE INTESTINE: TUMOR, Dose [Carcinogen]: 20 MG/KG BODY WEIGHT IN SALINE FOR 10 WK BEGINNING AT 11 WK OF AGE, Promoter: NONE USED): 15/20 (75%), 12/35 (34%), 55%, p=0.0036
tumour outcome (control, treated, inhibition, significance) (Carcinogen: 2-ACETYLAMINOFLUORENE, 53-96-3, Dose [Inhibitor]: 0, 100 PPM IN DIET CONCURRENTLY WITH CARCINOGEN FOR STUDY DURATION (STUDY DURATION: 76 WK), Route [Inhibitor]: ORAL, Species: RAT, Strain/Sex: F344/MALE, Target Tissue: Type of Lesion: LIVER: HEPATOCELLULAR TUMOR, Dose [Carcinogen]: 50 PPM IN DIET FOR 76 WK): 20/20 (100%), 18/18 (100%), 0%, not calculated
tumour outcome (control, treated, inhibition, significance) (Carcinogen: 2-ACETYLAMINOFLUORENE, 53-96-3, Dose [Inhibitor]: 0, 100 PPM IN SEMISYNTHETIC DIET CONCURRENTLY WITH CARCINOGEN FOR STUDY DURATION (STUDY DURATION: 76 WK), Route [Inhibitor]: ORAL, Species: RAT, Strain/Sex: F344/MALE, Target Tissue: Type of Lesion: BLADDER: CARCINOMA, Dose [Carcinogen]: 50 PPM IN DIET FOR 76 WK): 1/17 (6%), 0/16 (0%), 100%, not calculated
tumour outcome (control, treated, inhibition, significance) (Carcinogen: 2-ACETYLAMINOFLUORENE, 53-96-3, Dose [Inhibitor]: 0, 100 PPM IN SEMISYNTHETIC DIET CONCURRENTLY WITH CARCINOGEN FOR STUDY DURATION (STUDY DURATION: 76 WK), Route [Inhibitor]: ORAL, Species: RAT, Strain/Sex: F344/MALE, Target Tissue: Type of Lesion: LIVER: HEPATOCELLULAR TUMORS, Dose [Carcinogen]: 50 PPM IN DIET FOR 76 WK): 17/17 (100%), 16/16 (100%), 0%, not significant
outcome (Carcinogen: 2-ACETYLAMINOFLUORENE, 53-96-3, Dose [Inhibitor]: 0, 300 PPM IN DIET CONCURRENTLY WITH CARCINOGEN FOR STUDY DURATION (STUDY DURATION: 76 WK), Route [Inhibitor]: ORAL, Species: RAT, Strain/Sex: F344/MALE, Target Tissue: Type of Lesion: LIVER: ADENOMA, Dose [Carcinogen]: 50 PPM IN DIET FOR 76 WK): 19.2, 13.4, 30%, p<0.05
tumour outcome (control, treated, inhibition, significance) (Carcinogen: 2-ACETYLAMINOFLUORENE, 53-96-3, Dose [Inhibitor]: 0, 300 PPM IN DIET CONCURRENTLY WITH CARCINOGEN FOR STUDY DURATION (STUDY DURATION: 76 WK), Route [Inhibitor]: ORAL, Species: RAT, Strain/Sex: F344/MALE, Target Tissue: Type of Lesion: LIVER: HEPATOCELLULAR TUMOR, Dose [Carcinogen]: 50 PPM IN DIET FOR 76 WK): 20/20 (100%), 17/17 (100%), 0%, not calculated
tumour outcome (control, treated, inhibition, significance) (Carcinogen: 2-ACETYLAMINOFLUORENE, 53-96-3, Dose [Inhibitor]: 0, 1000 PPM IN DIET CONCURRENTLY WITH CARCINOGEN FOR STUDY DURATION (STUDY DURATION: 76 WK), Route [Inhibitor]: ORAL, Species: RAT, Strain/Sex: F344/MALE, Target Tissue: Type of Lesion: LIVER: HEPATOCELLULAR TUMOR, Dose [Carcinogen]: 50 PPM IN DIET FOR 76 WK): 20/20 (100%), 19/19 (100%), 0%, not calculated
